{"source": "patent US10988456B2", "about": "“O-aminoheteroaryl alkynyl-containing compound, preparation method therefor, and use thereof” (SHANGHAI INSTITUTE OF MATERIA MEDICA, CHINESE ACADEMY OF …, priority 2017, dated 2021)", "key": {"[1]": {"system": "human gastric cancer SNU-16 xenografts", "experiment": "Growth of subcutaneous xenografts of human gastric cancer SNU-16 in nude mice (HuFGFR267 study)", "type": "in vivo", "details": "for relative tumor proliferation rate T/C: day 21; for Weight (g, mean ± SD): SNU-16 tumor-bearing mice", "method": "The diameter of the subcutaneously implanted tumor in nude mice was measured by a vernier caliper. […] In the compound HuFGFR267 50 mg/kg group, the compound was formulated with 0.5% methylcellulose (MC) to the required concentration before use. […] The positive control drug AZD4547 was diluted to the required concentration with water for injection containing 1% Tween 80 before use. […] In the solvent control group, an equal amount of water for injection was administrated."}, "[2]": {"system": "human lung cancer NCI-H1581 xenografts", "experiment": "Growth of subcutaneous xenografts of human lung cancer NCI-H1581 in nude mice", "type": "in vivo", "details": "for Relative tumor volume RTV (mean ± SD): NCI-H1581, 50 mg/kg orally once a day; for Weight (g, mean ± SD): NCI-H1581 tumor-bearing mice, 50 mg/kg orally once a day", "method": "The diameter of the subcutaneously implanted tumor in nude mice was measured by a vernier caliper. […] In the compound HuFGFR267 50 mg/kg group, the compound was formulated with 0.5% methylcellulose (MC) to the required concentration before use. The formulation of compound was prepared once a week, and orally administered once a day for 14 days. The positive control drug AZD4547 was diluted to the required concentration with water for injection containing 1% Tween 80 before use. The formulation of AZD4547 was prepared once a week, and orally administered once a day for 14 days. In the solvent control group, an equal amount of water for injection was administrated."}}, "note": "“Also recorded” adds a separate entry of the source.", "data": [{"molecule": "CN1CCN(Cc2ccc(NC(=O)c3ccc(Cl)c(C#Cc4cccnc4N)c3)cc2C(F)(F)F)CC1", "note": "[Example 1, 3-(2-aminopyridine-3-ethynyl)-4-chloro-N-(4-((4-methylpiperazin-1-yl)methylene)-3-(trifluoromethyl)phenyl)benzamide]", "values": [{"measurement": "relative tumor proliferation rate T/C", "setting": "[1]; SNU-16, 25 mg/kg orally once a day for 21 days", "value": 18.55, "unit": "%"}, {"measurement": "Relative tumor volume RTV (mean ± SD)", "setting": "[1]; SNU-16, 25 mg/kg orally once a day, d0", "value": "1.00 ± 0.00"}, {"measurement": "Relative tumor volume RTV (mean ± SD)", "setting": "[1]; SNU-16, 25 mg/kg orally once a day, d3", "value": "1.74 ± 0.58"}, {"measurement": "Relative tumor volume RTV (mean ± SD)", "setting": "[1]; SNU-16, 25 mg/kg orally once a day, d7", "value": "2.51 ± 0.93"}, {"measurement": "Relative tumor volume RTV (mean ± SD)", "setting": "[1]; SNU-16, 25 mg/kg orally once a day, d10", "value": "3.13 ± 1.51"}, {"measurement": "Relative tumor volume RTV (mean ± SD)", "setting": "[1]; SNU-16, 25 mg/kg orally once a day, d14", "value": "3.79 ± 1.93"}, {"measurement": "Relative tumor volume RTV (mean ± SD)", "setting": "[1]; SNU-16, 25 mg/kg orally once a day, d17", "value": "3.97 ± 1.58"}, {"measurement": "Relative tumor volume RTV (mean ± SD)", "setting": "[1]; SNU-16, 25 mg/kg orally once a day, d21", "value": "4.35 ± 2.03"}, {"measurement": "relative tumor proliferation rate T/C", "setting": "[1]; SNU-16, 50 mg/kg orally once a day for 21 days", "value": 11.66, "unit": "%"}, {"measurement": "Relative tumor volume RTV (mean ± SD)", "setting": "[1]; SNU-16, 50 mg/kg orally once a day, d0", "value": "1.00 ± 0.00"}, {"measurement": "Relative tumor volume RTV (mean ± SD)", "setting": "[1]; SNU-16, 50 mg/kg orally once a day, d3", "value": "1.11 ± 0.42"}, {"measurement": "Relative tumor volume RTV (mean ± SD)", "setting": "[1]; SNU-16, 50 mg/kg orally once a day, d7", "value": "0.83 ± 0.49"}, {"measurement": "Relative tumor volume RTV (mean ± SD)", "setting": "[1]; SNU-16, 50 mg/kg orally once a day, d10", "value": "1.26 ± 0.71"}, {"measurement": "Relative tumor volume RTV (mean ± SD)", "setting": "[1]; SNU-16, 50 mg/kg orally once a day, d14", "value": "1.89 ± 1.57"}, {"measurement": "Relative tumor volume RTV (mean ± SD)", "setting": "[1]; SNU-16, 50 mg/kg orally once a day, d17", "value": "2.02 ± 1.63"}, {"measurement": "Relative tumor volume RTV (mean ± SD)", "setting": "[1]; SNU-16, 50 mg/kg orally once a day, d21", "value": "2.73 ± 2.82"}, {"measurement": "body weight of tumor-bearing mice (in words)", "setting": "[1]; SNU-16, HuFGFR267 50 mg/kg and 25 mg/kg groups", "value": "no significant change; also recorded: did not change significantly"}, {"measurement": "animal deaths during the experiment", "setting": "[1]; SNU-16, each group (HuFGFR267 50 and 25 mg/kg, AZD4547 12.5 mg/kg)", "value": "no mice died"}, {"measurement": "Weight (g, mean ± SD)", "setting": "[1]; 25 mg/kg orally once a day, d0", "value": "18.6 ± 1.6", "unit": "g"}, {"measurement": "Weight (g, mean ± SD)", "setting": "[1]; 25 mg/kg orally once a day, d3", "value": "19.4 ± 1.7", "unit": "g"}, {"measurement": "Weight (g, mean ± SD)", "setting": "[1]; 25 mg/kg orally once a day, d7", "value": "20.0 ± 1.8", "unit": "g"}, {"measurement": "Weight (g, mean ± SD)", "setting": "[1]; 25 mg/kg orally once a day, d10", "value": "20.9 ± 1.8", "unit": "g"}, {"measurement": "Weight (g, mean ± SD)", "setting": "[1]; 25 mg/kg orally once a day, d14", "value": "21.3 ± 1.7", "unit": "g"}, {"measurement": "Weight (g, mean ± SD)", "setting": "[1]; 25 mg/kg orally once a day, d17", "value": "21.2 ± 1.6", "unit": "g"}, {"measurement": "Weight (g, mean ± SD)", "setting": "[1]; 25 mg/kg orally once a day, d21", "value": "21.4 ± 1.8", "unit": "g"}, {"measurement": "Weight (g, mean ± SD)", "setting": "[1]; 50 mg/kg orally once a day, d0", "value": "18.9 ± 1.9", "unit": "g"}, {"measurement": "Weight (g, mean ± SD)", "setting": "[1]; 50 mg/kg orally once a day, d3", "value": "19.4 ± 2.2", "unit": "g"}, {"measurement": "Weight (g, mean ± SD)", "setting": "[1]; 50 mg/kg orally once a day, d7", "value": "19.9 ± 2.4", "unit": "g"}, {"measurement": "Weight (g, mean ± SD)", "setting": "[1]; 50 mg/kg orally once a day, d10", "value": "20.6 ± 2.3", "unit": "g"}, {"measurement": "Weight (g, mean ± SD)", "setting": "[1]; 50 mg/kg orally once a day, d14", "value": "20.5 ± 2.2", "unit": "g"}, {"measurement": "Weight (g, mean ± SD)", "setting": "[1]; 50 mg/kg orally once a day, d17", "value": "20.8 ± 2.3", "unit": "g"}, {"measurement": "Weight (g, mean ± SD)", "setting": "[1]; 50 mg/kg orally once a day, d21", "value": "20.7 ± 2.2", "unit": "g"}, {"measurement": "body weight of tumor-bearing mice (in words)", "setting": "[2]; NCI-H1581, 50 mg/kg orally once a day for 14 days", "value": "no significant change"}, {"measurement": "relative tumor proliferation rate T/C", "setting": "[2]; NCI-H1581, 50 mg/kg orally once a day for 14 days, 14th day", "value": 3.77, "unit": "%"}, {"measurement": "Relative tumor volume RTV (mean ± SD)", "setting": "[2]; d0", "value": "1.00 ± 0.00"}, {"measurement": "Relative tumor volume RTV (mean ± SD)", "setting": "[2]; d3", "value": "1.28 ± 0.40"}, {"measurement": "Relative tumor volume RTV (mean ± SD)", "setting": "[2]; d7", "value": "1.33 ± 0.74"}, {"measurement": "Relative tumor volume RTV (mean ± SD)", "setting": "[2]; d10", "value": "2.02 ± 1.10"}, {"measurement": "Relative tumor volume RTV (mean ± SD)", "setting": "[2]; d14", "value": "2.16 ± 1.41"}, {"measurement": "animal deaths during the experiment", "setting": "[2]; NCI-H1581, each group (HuFGFR267 50 mg/kg, AZD4547 12.5 mg/kg)", "value": "no mice died"}, {"measurement": "Weight (g, mean ± SD)", "setting": "[2]; d0", "value": "18.1 ± 1.2", "unit": "g"}, {"measurement": "Weight (g, mean ± SD)", "setting": "[2]; d3", "value": "19.2 ± 1.0", "unit": "g"}, {"measurement": "Weight (g, mean ± SD)", "setting": "[2]; d7", "value": "19.7 ± 1.0", "unit": "g"}, {"measurement": "Weight (g, mean ± SD)", "setting": "[2]; d10", "value": "20.2 ± 1.2", "unit": "g"}, {"measurement": "Weight (g, mean ± SD)", "setting": "[2]; d14", "value": "20.0 ± 1.3", "unit": "g"}]}]}
